The text below walks through data of the supplement of paper PMC10307832.

Common to all, as to test: relative viability (nuclei count vs DMSO), 5 days (fraction); higher = more cells survive
Compound in the assay “Sunitinib + Luminespib”: CCN(CC)CCNC(=O)c1c(C)[nH]c(/C=C2\C(=O)Nc3ccc(F)cc32)c1C [Sunitinib] + CCNC(=O)c1noc(-c2cc(C(C)C)c(O)cc2O)c1-c1ccc(CN2CCOCC2)cc1 [Luminespib] (partner 0.01 µM)
The method in brief: (§1)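 A single step with final 0.05% Triton X-100, 1% formaldehyde and 1 ug/ml Hoechst fixed the cells and stained nuclei 5 days after treatment. Lung cancer cell lines in 1536-well plates had been treated by pin tool the day after seeding with one drug alone or a fixed anchor-drug dose plus five library-drug doses (not always all listed) in √10 steps, and nuclei were counted on 4× images. Relative viability is the ratio of nuclei in treated wells to nuclei in vehicle wells, taken as the median of duplicate plates.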

Compound in the assay “Sunitinib + OSI-027”: CCN(CC)CCNC(=O)c1c(C)[nH]c(/C=C2\C(=O)Nc3ccc(F)cc32)c1C [Sunitinib] + COc1cccc2cc(-c3nc([C@H]4CC[C@H](C(=O)O)CC4)n4ncnc(N)c34)[nH]c12 [OSI-027] (partner 0.5 µM)
The method in brief: as §1

Compound in the assay “Sunitinib + Lapatinib”: CCN(CC)CCNC(=O)c1c(C)[nH]c(/C=C2\C(=O)Nc3ccc(F)cc32)c1C [Sunitinib] + CS(=O)(=O)CCNCc1ccc(-c2ccc3ncnc(Nc4ccc(OCc5cccc(F)c5)c(Cl)c4)c3c2)o1 [Lapatinib] (partner 2 µM)
The method, boiled down:
as §1

Compound in the assay “Sunitinib + Linsitinib”: CCN(CC)CCNC(=O)c1c(C)[nH]c(/C=C2\C(=O)Nc3ccc(F)cc32)c1C [Sunitinib] + C[C@]1(O)C[C@@H](c2nc(-c3ccc4ccc(-c5ccccc5)nc4c3)c3c(N)nccn32)C1 [Linsitinib] (partner 1 µM)
The method, boiled down: as §1

Take NCI-H1666: the relative viability in the assay with Sunitinib + Luminespib (first compound 0.02 µM) was found to be 0.983; with Sunitinib + Luminespib (first compound 0.2 µM) it was 1.07; with Sunitinib + Luminespib (first compound 0.6325 µM) it was 1.07; with Sunitinib + Luminespib (first compound 2 µM), 1.12; with Sunitinib + OSI-027 (first compound 0.02 µM), 0.835; in the assay with Sunitinib + OSI-027 (first compound 0.06325 µM), 0.877. The relative viability turned out to be 0.924 with Sunitinib + OSI-027 (first compound 0.2 µM); 0.924 in the assay with Sunitinib + OSI-027 (first compound 0.6325 µM); 0.822 with Sunitinib + OSI-027 (first compound 2 µM); 0.9 with Sunitinib + Lapatinib (first compound 0.06325 µM); 0.584 with Sunitinib + Lapatinib (first compound 0.2 µM); 0.719 with Sunitinib + Lapatinib (first compound 0.6325 µM). Further, the relative viability with Sunitinib + Lapatinib (first compound 2 µM) was found to be 0.671; with Sunitinib + Linsitinib (first compound 0.02 µM), 0.701; with Sunitinib + Linsitinib (first compound 0.06325 µM), 0.815; with Sunitinib + Linsitinib (first compound 0.2 µM) it was 0.971; with Sunitinib + Linsitinib (first compound 0.6325 µM), 0.827.

In the case of NCI-H1651, the relative viability with Sunitinib + Luminespib (first compound 0.02 µM) is 0.758; with Sunitinib + Luminespib (first compound 0.06325 µM) it was 0.766; in the assay with Sunitinib + Luminespib (first compound 0.2 µM) it was 1.06; in the assay with Sunitinib + Luminespib (first compound 0.6325 µM), 0.942; with Sunitinib + Luminespib (first compound 2 µM) it was 1.14; with Sunitinib + OSI-027 (first compound 0.02 µM), 0.57. Besides, the relative viability with Sunitinib + OSI-027 (first compound 0.2 µM) is 0.73; in the assay with Sunitinib + OSI-027 (first compound 0.6325 µM), 0.534; with Sunitinib + OSI-027 (first compound 2 µM) it was 0.714; in the assay with Sunitinib + Lapatinib (first compound 0.02 µM), 0.766; with Sunitinib + Lapatinib (first compound 0.06325 µM), 1.21; with Sunitinib + Lapatinib (first compound 0.2 µM), 1.06. The relative viability with Sunitinib + Lapatinib (first compound 0.6325 µM) was found to be 0.893; in the assay with Sunitinib + Lapatinib (first compound 2 µM), 0.923; with Sunitinib + Linsitinib (first compound 0.02 µM), 0.882; with Sunitinib + Linsitinib (first compound 0.06325 µM), 1.07; with Sunitinib + Linsitinib (first compound 0.2 µM), 1.09; in the assay with Sunitinib + Linsitinib (first compound 0.6325 µM), 0.998. In addition, in the assay with Sunitinib + Linsitinib (first compound 2 µM), the relative viability was determined as 0.96.

In the case of NCI-H2009, the relative viability in the assay with Sunitinib + Luminespib (first compound 0.02 µM) was found to be 1.02; in the assay with Sunitinib + Luminespib (first compound 0.06325 µM), 1.05; in the assay with Sunitinib + Luminespib (first compound 0.2 µM) it was 1.18; with Sunitinib + Luminespib (first compound 0.6325 µM) it was 1.04; in the assay with Sunitinib + Luminespib (first compound 2 µM), 1.04; with Sunitinib + OSI-027 (first compound 0.02 µM), 0.578. For the same cell line, the relative viability with Sunitinib + OSI-027 (first compound 0.06325 µM) is 0.772; in the assay with Sunitinib + OSI-027 (first compound 0.2 µM), 0.704; in the assay with Sunitinib + OSI-027 (first compound 0.6325 µM), 0.771; with Sunitinib + OSI-027 (first compound 2 µM) it was 0.666; in the assay with Sunitinib + Lapatinib (first compound 0.02 µM), 0.929; in the assay with Sunitinib + Lapatinib (first compound 0.06325 µM) it was 1.34. Also, the relative viability in the assay with Sunitinib + Lapatinib (first compound 0.2 µM) was determined as 0.995; in the assay with Sunitinib + Lapatinib (first compound 2 µM) it was 1.18; in the assay with Sunitinib + Linsitinib (first compound 0.02 µM), 1.2; with Sunitinib + Linsitinib (first compound 0.06325 µM), 1.18; with Sunitinib + Linsitinib (first compound 0.2 µM) it was 1.2; in the assay with Sunitinib + Linsitinib (first compound 0.6325 µM), 1.31. Moreover, the relative viability in the assay with Sunitinib + Linsitinib (first compound 2 µM) was 1.27.

With NCI-H838, the relative viability stood at 0.351 in the assay with Sunitinib + Luminespib (first compound 0.02 µM); 0.328 in the assay with Sunitinib + Luminespib (first compound 0.06325 µM); 0.301 with Sunitinib + Luminespib (first compound 0.2 µM); 0.261 with Sunitinib + Luminespib (first compound 0.6325 µM); 0.234 with Sunitinib + Luminespib (first compound 2 µM); 0.386 with Sunitinib + OSI-027 (first compound 0.02 µM). Moreover, the relative viability with Sunitinib + OSI-027 (first compound 0.06325 µM) came out at 0.358; in the assay with Sunitinib + OSI-027 (first compound 0.2 µM), 0.423; with Sunitinib + OSI-027 (first compound 0.6325 µM), 0.319; with Sunitinib + OSI-027 (first compound 2 µM) it was 0.317; in the assay with Sunitinib + Lapatinib (first compound 0.02 µM), 0.885; with Sunitinib + Lapatinib (first compound 0.06325 µM), 1.38. For the same cell line, the relative viability in the assay with Sunitinib + Lapatinib (first compound 0.2 µM) is 1.22; with Sunitinib + Lapatinib (first compound 0.6325 µM) it was 1.09; in the assay with Sunitinib + Lapatinib (first compound 2 µM), 0.894; with Sunitinib + Linsitinib (first compound 0.02 µM) it was 0.916; in the assay with Sunitinib + Linsitinib (first compound 0.06325 µM), 0.987; in the assay with Sunitinib + Linsitinib (first compound 0.2 µM), 1.06. For the same cell line, the relative viability worked out at 1.07 with Sunitinib + Linsitinib (first compound 0.6325 µM) and 0.85 with Sunitinib + Linsitinib (first compound 2 µM).

Turning to LC-2-ad, the relative viability with Sunitinib + Luminespib (first compound 0.02 µM) was found to be 1.09; with Sunitinib + Luminespib (first compound 0.06325 µM), 1.06; with Sunitinib + Luminespib (first compound 0.2 µM), 1.18; with Sunitinib + Luminespib (first compound 0.6325 µM), 1.04; with Sunitinib + Luminespib (first compound 2 µM), 0.913; with Sunitinib + OSI-027 (first compound 0.06325 µM), 0.844. In addition, the relative viability is 0.944 with Sunitinib + OSI-027 (first compound 0.2 µM); 0.818 with Sunitinib + OSI-027 (first compound 0.6325 µM); 0.614 with Sunitinib + OSI-027 (first compound 2 µM); 0.916 with Sunitinib + Lapatinib (first compound 0.02 µM); 1.11 with Sunitinib + Lapatinib (first compound 0.06325 µM); 1.07 in the assay with Sunitinib + Lapatinib (first compound 0.2 µM). The relative viability with Sunitinib + Lapatinib (first compound 0.6325 µM) is 0.904; with Sunitinib + Lapatinib (first compound 2 µM), 0.581; with Sunitinib + Linsitinib (first compound 0.02 µM), 0.839; with Sunitinib + Linsitinib (first compound 0.06325 µM), 0.918; in the assay with Sunitinib + Linsitinib (first compound 0.2 µM) it was 0.89; in the assay with Sunitinib + Linsitinib (first compound 0.6325 µM), 0.844. Further, the relative viability with Sunitinib + Linsitinib (first compound 2 µM) is 0.677.

NCI-H2087: the relative viability with Sunitinib + Luminespib (first compound 0.02 µM) was found to be 0.195; in the assay with Sunitinib + Luminespib (first compound 0.06325 µM), 0.172; in the assay with Sunitinib + Luminespib (first compound 0.2 µM), 0.166; with Sunitinib + Luminespib (first compound 0.6325 µM), 0.158; with Sunitinib + Luminespib (first compound 2 µM), 0.174; with Sunitinib + OSI-027 (first compound 0.02 µM) it was 0.423. In addition, the relative viability with Sunitinib + OSI-027 (first compound 0.06325 µM) was 0.755; in the assay with Sunitinib + OSI-027 (first compound 0.2 µM) it was 0.636; with Sunitinib + OSI-027 (first compound 0.6325 µM), 0.577; in the assay with Sunitinib + OSI-027 (first compound 2 µM), 0.449; with Sunitinib + Lapatinib (first compound 0.06325 µM), 1.11; with Sunitinib + Lapatinib (first compound 0.2 µM), 1.01. Further, the relative viability came to 1.26 with Sunitinib + Lapatinib (first compound 0.6325 µM); 1.03 with Sunitinib + Lapatinib (first compound 2 µM); 1.01 in the assay with Sunitinib + Linsitinib (first compound 0.06325 µM); 0.938 with Sunitinib + Linsitinib (first compound 0.2 µM); 0.889 with Sunitinib + Linsitinib (first compound 2 µM).

NCI-H2347: the relative viability amounted to 0.486 with Sunitinib + Luminespib (first compound 0.02 µM); 0.355 in the assay with Sunitinib + Luminespib (first compound 0.06325 µM); 0.377 in the assay with Sunitinib + Luminespib (first compound 0.2 µM); 0.238 with Sunitinib + Luminespib (first compound 0.6325 µM); 0.558 with Sunitinib + Luminespib (first compound 2 µM); 0.451 with Sunitinib + OSI-027 (first compound 0.02 µM). In addition, the relative viability is 0.507 with Sunitinib + OSI-027 (first compound 0.06325 µM); 0.67 with Sunitinib + OSI-027 (first compound 0.2 µM); 0.384 in the assay with Sunitinib + OSI-027 (first compound 0.6325 µM); 0.552 with Sunitinib + OSI-027 (first compound 2 µM); 0.873 with Sunitinib + Lapatinib (first compound 0.02 µM); 1.17 with Sunitinib + Lapatinib (first compound 0.2 µM). The relative viability stood at 1.03 in the assay with Sunitinib + Lapatinib (first compound 0.6325 µM); 0.95 with Sunitinib + Lapatinib (first compound 2 µM); 0.93 with Sunitinib + Linsitinib (first compound 0.02 µM); 0.991 with Sunitinib + Linsitinib (first compound 0.06325 µM); 1.11 with Sunitinib + Linsitinib (first compound 0.2 µM); 0.991 with Sunitinib + Linsitinib (first compound 0.6325 µM). Also, the relative viability with Sunitinib + Linsitinib (first compound 2 µM) came out at 0.978.

Turning to UMC-11, the relative viability in the assay with Sunitinib + Luminespib (first compound 0.02 µM) turned out to be 1.01; with Sunitinib + Luminespib (first compound 0.06325 µM) it was 1.02; in the assay with Sunitinib + Luminespib (first compound 0.2 µM), 1.14; with Sunitinib + Luminespib (first compound 0.6325 µM) it was 1.1; in the assay with Sunitinib + Luminespib (first compound 2 µM) it was 0.943; with Sunitinib + OSI-027 (first compound 0.02 µM), 0.401. Besides, the relative viability with Sunitinib + OSI-027 (first compound 0.06325 µM) came out at 0.526; in the assay with Sunitinib + OSI-027 (first compound 0.2 µM), 0.54; in the assay with Sunitinib + OSI-027 (first compound 0.6325 µM) it was 0.494; with Sunitinib + OSI-027 (first compound 2 µM) it was 0.462; with Sunitinib + Lapatinib (first compound 0.02 µM), 0.984; in the assay with Sunitinib + Lapatinib (first compound 0.2 µM), 1.07. Besides, the relative viability with Sunitinib + Lapatinib (first compound 0.6325 µM) worked out at 1.03; with Sunitinib + Lapatinib (first compound 2 µM), 0.967; with Sunitinib + Linsitinib (first compound 0.02 µM), 0.958; with Sunitinib + Linsitinib (first compound 0.06325 µM), 0.958; with Sunitinib + Linsitinib (first compound 0.2 µM), 1.08; with Sunitinib + Linsitinib (first compound 0.6325 µM) it was 1.01. Also, the relative viability with Sunitinib + Linsitinib (first compound 2 µM) was 0.914.
